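Grown in 96-well plates, cells were treated for 48 hours with each compound at five concentrations. Insufficient inhibition: endpoint recorded as highest concentration tested. At the GI50, growth is halved. TGI is the concentration that stops growth completely.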 Where a SMILES comes first, the peptide text is derived from it. [ ]: non-standard residue; d: D form. The star is where a group is joined. mTyr = N[CH](Cc1cccc(O)c1)C(=O)O; Cbz = O=C(OCc1ccccc1)*; OBn = c1ccc(CO*)cc1 A value given as a limit tells only on which side of the number the result lay.

Among the test systems are MDA-N; HL-60(TB) leukemia; T-47D breast; NCI-H23 lung; DU-145 prostate; SN12C renal; BT-549 breast; SNB-19 CNS; SR leukemia.
Holding throughout (assay): NCI tumour cell line growth inhibition, 48 h

As to `CCC(c1c[nH]c2ccc(Br)cc12)c1c[nH]c2ccc(Br)cc12`, the TGI amounted to 16 µM with MDA-N; 16.3 µM with HL-60(TB) leukemia; 7.97 µM in the assay on T-47D breast; 11 µM in the assay with NCI-H23 lung; 10.8 µM in the assay with DU-145 prostate; 15.4 µM in the assay with SN12C renal. Besides, the results for the TGI in the assay on BT-549 breast and in the assay with SNB-19 CNS were 23.3 µM and 21.4 µM, respectively.
With `O[C@H]1[C@H](O)[C@@H](O)[C@@]2(O)C[C@@H](O)[C@@H]1N2`, the TGI in the assay on MDA-N, in the assay with HL-60(TB) leukemia, in the assay on T-47D breast, in the assay on NCI-H23 lung, with DU-145 prostate and in the assay with SR leukemia was greater than 100 µM throughout. The TGI with SN12C renal and in the assay with SNB-19 CNS was greater than 100 µM in each case.
For the compound `COc1ccc(/C=C2\CN(C)C/C(=C\c3ccc(OC)c(OC)c3OC)C2=O)c(OC)c1OC`, the TGI in the assay with MDA-N was determined as 1.25 µM; in the assay with HL-60(TB) leukemia, 0.044 µM; with T-47D breast it was 6.22 µM; in the assay with DU-145 prostate, 1.39 µM; with SR leukemia it was 0.0854 µM; with SN12C renal, 0.449 µM. In addition, the TGI in the assay with SNB-19 CNS stood at 1.2 µM.
In the case of `CN(CCCNC(=O)c1nn(-c2ccc(Cl)cc2Cl)c2c1Cc1ccccc1-2)CCCNC(=O)c1nn(-c2ccc(Cl)cc2Cl)c2c1Cc1ccccc1-2`, the TGI in the assay on MDA-N is 3.17 µM; in the assay with HL-60(TB) leukemia it was 3.14 µM; in the assay on T-47D breast it was 3.76 µM; in the assay with NCI-H23 lung, 3.48 µM; in the assay on DU-145 prostate it was 3.18 µM; in the assay on SN12C renal it was 3.04 µM. Moreover, the results for the TGI in the assay with BT-549 breast and in the assay on SNB-19 CNS were 3.18 µM and 3.24 µM, respectively.
Consider `CSCCC(NC(=O)Cc1ccc(C(=O)c2ccccc2)cc1)C(=O)O` (configuration not stated), for which the TGI in the assay with MDA-N, in the assay with HL-60(TB) leukemia, in the assay on T-47D breast, with NCI-H23 lung, in the assay with DU-145 prostate and in the assay on SN12C renal was greater than 100 µM throughout. For the same compound, the TGI in the assay on BT-549 breast and with SNB-19 CNS was greater than 100 µM throughout.
Take `CCN(CC)Cc1sc2nc3ccccc3n2c1-c1ccc(OC)cc1`: the TGI is 7.02 µM in the assay on MDA-N; greater than 100 µM with HL-60(TB) leukemia; greater than 100 µM in the assay on NCI-H23 lung; greater than 100 µM in the assay on DU-145 prostate; greater than 100 µM in the assay on BT-549 breast; greater than 100 µM in the assay on SNB-19 CNS.
On to `c1ccc(CSCCc2ccncc2)cc1`, for which the TGI was greater than 100 µM with MDA-N; 89.6 µM in the assay on HL-60(TB) leukemia; greater than 100 µM with T-47D breast; greater than 100 µM with NCI-H23 lung; greater than 100 µM with DU-145 prostate; greater than 100 µM in the assay on SN12C renal. In addition, the TGI in the assay with BT-549 breast and with SNB-19 CNS was greater than 100 µM throughout.
Regarding `O=c1onc2c3ccccc3ncn12`, the TGI in the assay on T-47D breast, in the assay on NCI-H23 lung, in the assay on DU-145 prostate, in the assay on SR leukemia, in the assay on SN12C renal and in the assay on BT-549 breast was greater than 100 µM throughout. In addition, in the assay with SNB-19 CNS, the TGI was greater than 100 µM.
Regarding `O=[As](O)(O)c1ccc(N=Nc2ccc(O)cc2)cc1`, the TGI with MDA-N, in the assay on HL-60(TB) leukemia, with T-47D breast, in the assay with NCI-H23 lung, in the assay with DU-145 prostate and in the assay with SN12C renal was greater than 100 µM each time. Also, the TGI in the assay with BT-549 breast and in the assay on SNB-19 CNS was greater than 100 µM throughout.
Consider `COC(=O)C(Cc1cccc(O)c1)NC(=O)C(CC(=O)OCc1ccccc1)NC(=O)OCc1ccccc1` (configuration not stated) (Cbz-Asp(OBn)-[mTyr]-OMe; configuration not given here), for which the TGI in the assay on MDA-N was greater than 100 µM; in the assay with HL-60(TB) leukemia it was greater than 100 µM; in the assay with T-47D breast, 59.5 µM; with NCI-H23 lung, greater than 100 µM; in the assay on SR leukemia it was greater than 100 µM; in the assay on SN12C renal, greater than 100 µM. Moreover, the TGI in the assay on BT-549 breast and with SNB-19 CNS was greater than 100 µM each time.
As for `COc1ccc(N=C2C(=Nc3ccc(OC)cc3)N(c3ccccc3)C(=S)N2N=C=C2Sc3ccccc3N2C)cc1`, the TGI in the assay with MDA-N, with T-47D breast, in the assay on NCI-H23 lung, in the assay on DU-145 prostate, with SR leukemia and in the assay with SN12C renal was greater than 100 µM each time. For the same compound, the TGI in the assay with BT-549 breast and in the assay with SNB-19 CNS was greater than 100 µM each time.
In the case of `CCOP(=O)(OCC)C(C)(CC)NC` (configuration not stated), the TGI in the assay with MDA-N, in the assay on HL-60(TB) leukemia, in the assay on T-47D breast, in the assay on NCI-H23 lung, with DU-145 prostate and in the assay on SN12C renal was greater than 100 µM in each case. Besides, the TGI with BT-549 breast and in the assay with SNB-19 CNS was greater than 100 µM in each case.
On to `FC(F)(F)c1ccc2nc(Sc3ccccn3)cnc2c1`, for which the TGI in the assay on MDA-N was greater than 100 µM; with HL-60(TB) leukemia, 31.7 µM; in the assay with T-47D breast it was greater than 100 µM; with NCI-H23 lung, 78.8 µM; in the assay on DU-145 prostate, greater than 100 µM; with SN12C renal, greater than 100 µM. The TGI with BT-549 breast came out at 68.1 µM; in the assay with SNB-19 CNS, 86.8 µM.
In the case of `CC1OC(O[C@H]2/C=C/C=C/C=C/C=C/C=C/C=C/C=C/[C@H](C)[C@@H](O)[C@@H](C)[C@H](C)OC(=O)CC(O)CC(O)CCC(O)C(O)CC(O)C[C@]3(O)C[C@H](O)C(C(=O)O)C(C2)O3)C(O)[C@H](N)C1O` (some centres not stated), the GI50 is 3.79 µM in the assay on HL-60(TB) leukemia; 16.4 µM with T-47D breast; 2.11 µM in the assay with NCI-H23 lung; 2.8 µM with DU-145 prostate; 1.58 µM with SN12C renal; 13.9 µM in the assay with BT-549 breast. Besides, in the assay with SNB-19 CNS, the GI50 was 2.57 µM. Further, the TGI in the assay with HL-60(TB) leukemia turned out to be 10.9 µM; in the assay with T-47D breast, 90.3 µM; in the assay with NCI-H23 lung, 5.36 µM; in the assay with DU-145 prostate it was 7.22 µM; in the assay with SN12C renal it was 2.99 µM; in the assay with BT-549 breast, 30.4 µM. The compound also displayed a TGI with SNB-19 CNS of 6.52 µM.
For `COc1cccc(N2C(=O)C3c4[nH]c5ccc(C)cc5c4C4CCC(C(C)(C)C)CC4C3C2=O)c1` (configuration not stated), the TGI in the assay on MDA-N is greater than 10 µM; in the assay on HL-60(TB) leukemia, 4.21 µM; with T-47D breast, greater than 10 µM; in the assay on NCI-H23 lung it was 5.74 µM; in the assay on DU-145 prostate, greater than 10 µM; in the assay on SR leukemia, 4.03 µM. The TGI with SN12C renal and in the assay with SNB-19 CNS was greater than 10 µM throughout.
